{"source": "paper PMC3705412", "about": "“PTP1B Inhibitory and Anti-Inflammatory Effects of Secondary Metabolites Isolated from the Marine-Derived Fungus Penicillium sp. JF-55” (Marine Drugs, 2013)", "key": {"[1]": {"target": "T1, PTP1B (human, recombinant) (Homo sapiens, UniProt P18031)", "T1 construct": "purchased BIOMOL Research Laboratories, Inc", "T1 sequence (P18031 1-435)": "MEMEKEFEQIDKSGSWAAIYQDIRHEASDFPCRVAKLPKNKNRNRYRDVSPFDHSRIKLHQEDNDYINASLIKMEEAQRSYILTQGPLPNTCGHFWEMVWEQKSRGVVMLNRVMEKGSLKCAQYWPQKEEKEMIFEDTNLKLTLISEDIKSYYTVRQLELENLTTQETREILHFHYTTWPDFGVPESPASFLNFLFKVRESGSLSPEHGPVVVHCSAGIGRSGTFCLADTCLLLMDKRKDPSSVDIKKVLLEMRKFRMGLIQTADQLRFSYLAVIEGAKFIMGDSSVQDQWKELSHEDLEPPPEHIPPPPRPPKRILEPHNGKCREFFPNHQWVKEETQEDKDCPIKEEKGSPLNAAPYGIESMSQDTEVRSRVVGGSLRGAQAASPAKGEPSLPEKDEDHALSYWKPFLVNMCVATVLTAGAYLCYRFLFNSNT", "assay": "PTP1B assay (pNPP hydrolysis)", "assay_type": "biochemical", "protocol": "PTP1B (human, recombinant) was purchased from BIOMOL Research Laboratories, Inc. Enzyme activity was measured in a reaction mixture containing 2 mM p-nitrophenyl phosphate (pNPP) in 50 mM citrate, pH 6.0 (composition: 0.1 M NaCl, 1 mM EDTA, and 1 mM dithiothreitol (DTT)). The reaction mixture was placed in an incubator maintained at 30 °C for 30 min, and the reaction was terminated by the addition of 1 N NaOH. The amount of p-nitrophenol produced was estimated by measuring the increase in absorbance at 405 nm. The nonenzymatic hydrolysis of 2 mM pNPP was corrected by measuring the increase in absorbance at 405 nm in the absence of PTP1B enzyme. For the kinetic analysis, the reaction mixture consisted of different concentrations of pNPP as a PTP1B substrate in the absence or presence of compound 1, and assays were performed as described above. The Michaelis-Menten constant (Km) and maximum velocity (Vmax) of PTP1B were determined by the Lineweaver-Burk plot using a GraphPad Prism® 4 program (GraphPad Software Inc., San Diego, CA, USA)."}, "[2]": {"test_system": "iNOS-derived NO production in murine peritoneal macrophages", "assay": "Nitrite (NO) production in LPS-stimulated macrophages, Griess reaction", "assay_type": "cell-based, murine (C57BL/6 mice)", "settings": "Mus musculus, Peritoneal macrophage; pre-treated 12 h, LPS 1 μg/mL 18 h", "protocol": "The expression of pro-inflammatory enzymes, including COX-2 and iNOS, plays an important role in immune-activated macrophages via the production of COX-2-derived PGE2 and iNOS-derived NO [20, 21]. To investigate the effects of compounds on iNOS-derived NO and COX-2-derived PGE2 production, and iNOS and COX-2 expression in LPS-stimulated macrophages, murine peritoneal macrophages were stimulated with LPS (1 μg/mL) for 18 h in the presence or absence of non-cytotoxic concentrations of compounds 1–3 (Figure S1). […] The finding that penstyrylpyrone (1) suppressed LPS-induced pro-inflammatory mediators, such as NO, PGE2, iNOS, and COX-2, led further investigation of the effects of penstyrylpyrone (1) on LPS-induced TNF-α and IL-1β production, which are other pro-inflammatory mediators.\nC57BL/6 mice were purchased from Orient Bio Co. (Sungnam, Kyung-Kido, Korea). TG-elicited peritoneal macrophages were harvested four days after intraperitoneal (i.p.) injection of 3 mL of TG [37]. Peritoneal lavage was performed using 8 mL of Hanks’ Balanced Salt Solution containing 10 U/mL heparin. The cells were distributed in Roswell Park Memorial Institute medium (RPMI) supplemented with 10% heat-inactivated FBS, in 6-well tissue culture plates (5 × 10^6 cells/mL).\nThe production of nitrite, a stable end product of NO oxidation, was used as a measure of iNOS activity. The nitrite present in the conditioned medium was determined using a method based on the Griess reaction."}, "Nrf2": {"test_system": "Nrf2", "assay": "Western blotting of Nrf2 nuclear translocation in macrophages", "assay_type": "cell-based, murine (C57BL/6 mice)", "settings": "40 μM; 15, 30, 60, 90 and 120 min", "protocol": "Figure 7 The effects of penstyrylpyrone (1) on the nuclear translocation of Nrf2 (A) and anti-oxidant response element (ARE) activation (B) in murine peritoneal macrophages. Murine peritoneal macrophages were treated with 40 μM of penstyrylpyrone (1) for 15, 30, 60, 90 and 120 min. The nuclei were fractionated from the cytosol using PER-Mammalian Protein Extraction buffer. Nrf2 protein was detected using Western blotting analysis and representative blots of three independent experiments are shown. Quiescent cells transiently transfected with ARE-luciferase or control vector were incubated for 1 h with indicated concentrations of latifolin in the presence of 5% FBS. […]\nMurine peritoneal macrophages were homogenized (1:20, w:v) in PER-Mammalian Protein Extraction buffer (Pierce Biotechnology, Rockford, IL, USA) containing freshly added protease inhibitor cocktail I (EMD Biosciences, San Diego, CA, USA) and 1 mM phenylmethylsulfonyl fluoride (PMSF). […] The protein concentration was determined using the bicinchoninic acid (BCA) protein assay kit.\nWestern blotting analysis was performed by lysing the cells in 20 mM Tris-HCl buffer (pH 7.4) containing a protease inhibitor mixture (0.1 mM PMSF, 5 mg/mL aprotinin, 5 mg/mL pepstatin A, and 1 mg/mL chymostatin). The protein concentration was determined using a Lowry protein assay kit (P5626; Sigma Chemical Co., St. Louis, MO, USA). […]"}}, "note": "pIC50: −log10 of the molar value.", "data": [{"smiles": "COc1cc(/C=C/c2ccccc2)oc(=O)c1C", "note": "[Penstyrylpyrone (1), penstyrylpyrone]", "values": [{"measurement": "pIC50", "setting": "[1]; 2 mM pNPP, pH 6.0, 30 °C, 30 min, read-out: PTP1B inhibitory activity IC50", "result": 5.28}, {"measurement": "Mode of PTP1B inhibition (Lineweaver-Burk, non-linear regression)", "setting": "[1]; different concentrations of pNPP", "result": "competitive"}, {"measurement": "pIC50", "setting": "[2]", "result": 4.91}, {"measurement": "Nrf2 levels in nuclear fractions", "setting": "Nrf2", "result": "gradual increase in Nrf2 levels"}]}]}
